Source: patent US11278528B2, “Activator of peroxisome proliferator-activated receptor” (Nippon Chemiphar Co., Ltd., priority 2017, dated 2022)

Legend:
PPARα = target: T1, PPARα (Homo sapiens, UniProt Q07869); assay: Measurement of agonist activity against PPARα (EnBio RCAS for PPARα kit, PPARA-CBP); assay type: biochemical; conditions: evaluation concentration 10 μM, ratio to maximal response well (GW7647 0.5 μM); for activation at 10 µM: read-out: Binding ratio (%) @ 10 μM
T1 construct: purchased Fujikura Kasei Co., Ltd. PPARA-CBP
T1 sequence (Q07869 1-468): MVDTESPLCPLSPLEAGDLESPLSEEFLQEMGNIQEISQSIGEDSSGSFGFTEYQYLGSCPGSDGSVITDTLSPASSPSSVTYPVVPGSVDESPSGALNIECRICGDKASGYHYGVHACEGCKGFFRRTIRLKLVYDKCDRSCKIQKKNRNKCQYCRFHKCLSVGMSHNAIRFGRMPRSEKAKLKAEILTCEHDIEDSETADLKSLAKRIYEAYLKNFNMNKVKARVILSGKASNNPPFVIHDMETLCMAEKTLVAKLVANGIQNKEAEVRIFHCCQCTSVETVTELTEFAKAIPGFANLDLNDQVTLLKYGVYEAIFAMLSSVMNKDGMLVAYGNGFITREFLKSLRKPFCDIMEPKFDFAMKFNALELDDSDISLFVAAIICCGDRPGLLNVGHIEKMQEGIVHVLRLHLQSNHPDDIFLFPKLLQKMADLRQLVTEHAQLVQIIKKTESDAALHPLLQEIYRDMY
Method: (1) Measurement of Agonist Activity against PPARα
For the measurement of agonist activity against PPARα, the absorbance was measured according to the kit protocol using EnBio RCAS for PPARα kit (PPARA-CBP, Fujikura Kasei Co., Ltd.). A sample was dissolved in dimethylsulfoxide and added to a 96-well plate so as to have an evaluation concentration of 10 μM. GW7647 was added to a maximal response well so as to have a concentration of 0.5 μM. Dimethylsulfoxide was added to background wells. After subtracting the absorbance of the background well from the absorbance of each sample addition well, the ratio of each sample addition well to the maximal response well was calculated to evaluate the agonist activity (Binding ratio, %) against PPARα. Note that the sample addition wells and the background wells were duplicated, and the maximal response well was quadruplicated. As a positive control, 10 μM of a known PPARα agonist; Fenofibric acid (Tokyo Chemical Industry Co., Ltd.) was used.

[1] = tested on: NAFLD model rats fed with a methionine/choline-deficient (MCD) diet; assay: Non-alcoholic fatty liver disease (NAFLD) model rats induced by methionine/choline-deficient diet; assay type: in vivo, Wistar rats; conditions: for Plasma ALT as an indicator of liver damage: versus Vehicle group (FIG. 1A); for Liver TG level as an indicator of fatty liver: versus Vehicle group (FIG. 1B)
Text: (1) Evaluation Using Non-Alcoholic Fatty Liver Disease (NAFLD) Model Rats Induced by Methionine/Choline-Deficient Diet
As a NAFLD model, rats fed with a methionine/choline-deficient (MCD) diet were used to perform experiments. The MCD diet-fed model is widely used as a model for NAFLD/NASH.
Wistar rats (male, 8 weeks old, Charles River Laboratories Japan, Inc.) were fed with an MCD diet (A02082002B, Research Diets, Inc.) for 5 weeks. From the time of feeding the above diet for 1 week, the rats were divided into a Vehicle group, a COMPOUND 2 (50 mg/kg) group, and a Fenofibrate (100 mg/kg) group so that there was no difference in body weight between the groups (n=4 in each of the groups). The Normal group was fed with an MCS diet as a control diet for the MCD diet (A02082003B, Research Diets, Inc.) for the same period. The administration volume was 10 mL/kg, a 1% methylcellulose solution was repeatedly orally administered to the Vehicle group and the Normal group, and a COMPOUND 2 solution and a Fenofibrate solution were repeatedly orally administered to the COMPOUND 2 group and the Fenofibrate group, respectively, once a day for 4 weeks.
The day after the end of the final administration, blood was collected from the posterior vena cava under non-fasting conditions and isoflurane inhalation anesthesia, and plasma was collected. Further, the liver was removed and a part thereof was cryopreserved. Plasma ALT was measured by the JSCC standardized method. Triglyceride (TG) in the liver was extracted from the liver with a chloroform/methanol mixed solution (2:1, v/v), evaporated to dryness, and dissolved in 2-propanol, and then the amount was measured using Triglyceride E Test Wako. The results were each expressed as a mean value±standard deviation. Significant difference was tested between the Normal group and the Vehicle group using the Welch's t test (unpaired) (#: p<0.05 and ###: p<0.001), and significant difference was tested among the Vehicle group and the test substance administration groups using the Dunnett's test (*: p<0.05, **: p<0.01, and ***: p<0.001).

[2] = tested on: ZDF rats with low urinary pH; assay: Low urinary pH improving effect in diabetic model Zucker Diabetic Fatty (ZDF) rats; assay type: in vivo, ZDF (Lepr^fa/Lepr^fa) rats; conditions: 24 h urine, versus Vehicle group (FIG. 2)
Method: (1) Evaluation Using Diabetic Models, Zucker Diabetic Fatty (ZDF) Rats
In this example, the low urinary pH improving effect of COMPOUND 2 was evaluated using diabetic model animals; ZDF rats with low urinary pH. Verinurad; a known URAT1 inhibitor was evaluated as a comparative control compound (the PPARα activating effect of Verinurad was evaluated by the method described in Test Example 1, and as a result, the binding ratio at an evaluation concentration of 10 μM was 3.80%, and no effect was confirmed).
ZDF (Lepr^fa/Lepr^fa) rats (male, 7 weeks old at the start of administration, Charles River Laboratories Japan, Inc.) were divided into a Vehicle group, a COMPOUND 2 (25 mg/kg) group, a COMPOUND 2 (50 mg/kg) group, and a Verinurad (50 mg/kg) group so that there was no difference in body weight between the groups (n=5 in each of the groups). As a Lean group, ZDF (Lean) rats, i.e., control animals of ZDF (Lepr^fa/Lepr^fa) rats, were used (n=5). The administration volume was 10 mL/kg, a 1% methylcellulose solution was repeatedly orally administered to the Vehicle group and the Lean group, and a COMPOUND 2 solutions and a Verinurad solution were repeatedly orally administered to the COMPOUND 2 groups and the Verinurad group, respectively, once a day for 15 days.
During the administration period, the pH of a urine sample obtained by urine collection was measured using a compact pH meter (B-712, Horiba, Ltd.). Urine collection was performed 6 days before the start of administration (pre), on the 1st day, 7th day and 14th day of administration, and urine was collected in a metabolic cage for 24 hours. The results were each expressed as a mean value±standard deviation. At each time point, significant difference was tested between the Lean group and the Vehicle group using the Student's t test (unpaired) (###: p<0.001). After one-way analysis of variance, significant difference was tested among the Vehicle group and the test substance administration groups using the Dunnett's test (*: p<0.05, **: p<0.01, and ***: p<0.001).

[3] = 50 mg/kg oral once a day for 4 weeks
[4] = 50 mg/kg oral once a day for 15 days
[5] = 100 mg/kg oral once a day for 4 weeks

Compound	activation at 10 µM (PPARα)	further results
N#Cc1ccc(-c2c(SC3(C(=O)O)CCC3)ccc3cnsc23)cc1 [COMPOUND 8, 1-[[7-(4-cyanophenyl)benzo[d]isothiazol-6-yl]thio]cyclobutan-1-carboxylic acid]	29.9%	
CC(C)(Oc1cc2ncsc2cc1-c1ccc(C#N)cc1)C(=O)O [COMPOUND 3, 2-[[6-(4-cyanophenyl)benzo[d]thiazol-5-yl]oxy]-2-methylpropanoic acid]	16%	
Cc1nsc2c(-c3ccc(C#N)cc3)c(SC3(C(=O)O)CCC3)ccc12 [COMPOUND 14, 1-[[7-(4-cyanophenyl)-3-methylbenzo[d]isothiazol-6-yl]thio]cyclobutan-1-carboxylic acid]	26.5%	
CC(C)(Sc1ccncc1-c1ccc(C#N)c2ccccc12)C(=O)O [Verinurad, reference compound]	3.8%	Urine pH [2, 4]: no low urinary pH improving effect was observed throughout the administration period
Cc1nc2ccc(SC(C)(C)C(=O)O)c(-c3ccc(C#N)cc3)c2s1 [COMPOUND 7, 2-[[7-(4-cyanophenyl)-2-methylbenzo[d]thiazol-6-yl]thio]-2-methylpropanoic acid]	47%	
N#Cc1ccc(-c2c(SC3(C(=O)O)CCCC3)ccc3cnsc23)cc1 [COMPOUND 11, 1-[[7-(4-cyanophenyl)benzo[d]isothiazol-6-yl]thio]cyclopentan-1-carboxylic acid]	21.7%	
Cc1nsc2c(-c3ccc(C#N)cc3)c(SC(C)(C)C(=O)O)ccc12 [COMPOUND 5, 2-[[7-(4-cyanophenyl)-3-methylbenzo[d]isothiazol-6-yl]thio]-2-methyl propanoic acid]	41.8%	
CC(C)(Sc1ccc2ccccc2c1-c1ccc(C#N)cc1)C(=O)O [COMPOUND 4, 2-[[1-(4-cyanophenyl)naphthalen-2-yl]thio]-2-methylpropanoic acid]	52.6%	
CC(C)(Oc1ccc(C(=O)c2ccc(Cl)cc2)cc1)C(=O)O [Fenofibric acid, 2-[4-(4-chlorobenzoyl)phenoxy]-2-methylpropionic acid, reference compound]		Binding ratio (%) @ 10 μM (PPARα): 50.46%
fenofibrate [reference compound]		Plasma ALT as an indicator of liver damage [1, 5]: significantly lower values than the Vehicle group; Liver TG level as an indicator of fatty liver [1, 5]: significantly lower

Now from value to compound, other results behind:

activation at 10 µM (PPARα)	Compound	further results
24.7%	CC(C)(Sc1ccc2nc(C(F)(F)F)sc2c1-c1ccc(C#N)cc1)C(=O)O [COMPOUND 6, 2-[[7-(4-cyanophenyl)-2-(trifluoromethyl)benzo[d]thiazol-6-yl]thio]-2-methylpropanoic acid]	
69.8%	CC(C)(Sc1ccc2cnsc2c1-c1ccc(C#N)cc1)C(=O)O [COMPOUND 2, 2-[[7-(4-cyanophenyl)benzo[d]isothiazol-6-yl]thio]-2-methylpropanoic acid]	Plasma ALT as an indicator of liver damage [1, 3]: significantly lower values than the Vehicle group; Liver TG level as an indicator of fatty liver [1, 3]: significantly lower; Urine pH ([2]; 25 mg/kg oral once a day for 15 days): significantly increased from the 7th day of administration; Urine pH [2, 4]: significantly increased from the 1st day of administration
71.3%	CC(C)(Sc1cc(F)c2cnsc2c1-c1ccc(C#N)cc1)C(=O)O [COMPOUND 10, 2-[[7-(4-cyanophenyl)-4-fluorobenzo[d]isothiazol-6-yl]thio]-2-methylpropanoic acid]	
20.8%	Cc1cc(-c2c(SC(C)(C)C(=O)O)ccc3cnsc23)ccc1C#N [COMPOUND 13, 2-[[7-(4-cyano-3-methylphenyl)benzo[d]isothiazol-6-yl]thio]-2-methylpropanoic acid]	
11.8%	CC(C)(C)C(Sc1ccc2cnsc2c1-c1ccc(C#N)cc1)C(=O)O (stereo not shown) [COMPOUND 16, 2-[[7-(4-cyanophenyl)benzo[d]isothiazol-6-yl]thio]-3,3-dimethylbutanoic acid]	
92.6%	CC(C)(Sc1ccc2cnsc2c1-c1ccc(Cl)cc1)C(=O)O [COMPOUND 12, 2-[[7-(4-chlorophenyl)benzo[d]isothiazol-6-yl]thio]-2-methylpropanoic acid]	
49.2%	CC(C)(Sc1ccc2ncsc2c1-c1ccc(C#N)cc1)C(=O)O [COMPOUND 1, 2-[[7-(4-cyanophenyl)benzo[d]thiazol-6-yl]thio]-2-methylpropanoic acid]	
87%	CC(C)(Sc1ccc2cnsc2c1-c1ccc(C(F)(F)F)cc1)C(=O)O [COMPOUND 9, 2-methyl-2-[[7-[4-(tri-fluoromethyl)phenyl]benzo[d]iso-thiazol-6-yl]thio]propanoic acid]	
59%	CCC(CC)(Sc1ccc2cnsc2c1-c1ccc(C#N)cc1)C(=O)O [COMPOUND 15, 2-[[7-(4-cyanophenyl)benzo[d]isothiazol-6-yl]thio]-2-ethylbutanoic acid]	
